In assay [1] the target is T1, human amylin receptor (calcitonin receptor co-expressed with receptor activity modifying protein, RAMP3) (hAMYR3) (Homo sapiens, UniProt O60896+P30988).
T1 construct: expressed in transfected cells
T1 sequence (P30988 25-474): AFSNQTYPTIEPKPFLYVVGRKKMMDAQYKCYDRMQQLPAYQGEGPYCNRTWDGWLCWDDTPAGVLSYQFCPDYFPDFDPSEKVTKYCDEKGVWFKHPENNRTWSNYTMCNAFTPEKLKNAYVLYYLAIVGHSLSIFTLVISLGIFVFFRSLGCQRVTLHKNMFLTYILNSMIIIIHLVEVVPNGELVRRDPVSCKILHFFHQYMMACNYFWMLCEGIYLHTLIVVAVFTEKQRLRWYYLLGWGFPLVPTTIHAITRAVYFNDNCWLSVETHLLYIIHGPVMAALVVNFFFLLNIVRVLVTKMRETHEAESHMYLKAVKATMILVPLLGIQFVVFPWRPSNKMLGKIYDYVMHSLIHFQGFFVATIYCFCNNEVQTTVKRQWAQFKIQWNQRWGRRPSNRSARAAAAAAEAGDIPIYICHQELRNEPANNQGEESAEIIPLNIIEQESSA
T1 sequence (O60896 24-148 partner): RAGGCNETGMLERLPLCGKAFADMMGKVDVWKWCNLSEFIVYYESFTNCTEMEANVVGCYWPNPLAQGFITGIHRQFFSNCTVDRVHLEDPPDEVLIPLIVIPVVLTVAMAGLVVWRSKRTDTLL
Briefly: cAMP production in 1321N1 cells with stable recombinant expression of human amylin receptor (hAMYR3). It is filed as cell-based. The settings on record: for Ratio (selectivity hAMYR vs hCTR, ratio of EC50 values at the two receptors): EC50 hCTR / EC50 hAMYR3; for EC50: cAMP, 1321N1 cells, assay buffer with 0.1% BSA, read-out: EC50 (pM) hAMYR3. A digest of the protocol: (§1)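 Thawed cells in HBSS/0.1% BSA/25 mM HEPES pH 7.4 with 0.5 mM IBMX were incubated with peptides 30 min at room temperature; cAMP read by HTRF. EC50 from 4-parameter fit of % activation relative to maximal amylin or calcitonin effect.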
(Changes in cAMP serve as a functional read-out for many G protein-coupled receptors.)

The target in assay [2] is T2, human calcitonin receptor (hCTR) (Homo sapiens, UniProt P30988).
T2 construct: expressed in transfected cells
T2 sequence (P30988 25-474): T1 sequence (P30988 25-474)
Briefly: cAMP production in 1321N1 cells with stable recombinant expression of human calcitonin receptor (hCTR). It is filed as cell-based. The settings on record: cAMP, 1321N1 cells, assay buffer with 0.1% BSA; read-out: EC50 (pM) hCTR. A digest of the protocol: as §1

Numbered stars: 1 amine (or outer) side, 2 acyl side, 3 side chain; on linkers, the order of the positions; unused ones are H or OH. Bridge positions count the residues as written; N and C are the ends. Square brackets hold non-standard residues; d marks the D form. Side chains are listed from the residue outwards. Peptide text beside a SMILES is read from it. * marks the point of attachment. C18 diacid = O=C(O)CCCCCCCCCCCCCCCCC(=O)*; γGlu = O=C(O)[C@H](CCC(=O)[*:2])N[*:1]; Aib = CC(C)(N)C(=O)O

Consider `CC[C@H](C)[C@H](NC(=O)[C@@H]1CCCN1C(=O)CNC(=O)[C@H](Cc1ccccc1)NC(=O)[C@H](CC(N)=O)NC(=O)C(C)(C)NC(=O)[C@H](CO)NC(=O)[C@H](CO)NC(=O)[C@H](Cc1c[nH]cn1)NC(=O)[C@H](CO)NC(=O)[C@H](CC(C)C)NC(=O)[C@H](Cc1ccccc1)NC(=O)[C@H](CC(N)=O)NC(=O)[C@H](C)NC(=O)[C@H](CC(C)C)NC(=O)[C@H](CCCNC(=N)N)NC(=O)[C@H](CCC(N)=O)NC(=O)[C@@H](NC(=O)[C@H](C)NC(=O)[C@@H]1CSSC[C@H](NC(=O)[C@H](CCCCN)NC(=O)[C@@H](N)CCCCNC(=O)CC[C@H](NC(=O)CCCCCCCCCCCCCCCCC(=O)O)C(=O)O)C(=O)N[C@@H](CC(N)=O)C(=O)N[C@@H]([C@@H](C)O)C(=O)N[C@@H](C)C(=O)N[C@@H]([C@@H](C)O)C(=O)N1)[C@@H](C)O)C(=O)N[C@@H](CC(C)C)C(=O)N1CCC[C@H]1C(=O)N1CCC[C@H]1C(=O)N[C@H](C(=O)N1CCC[C@H]1C(=O)N[C@H](C(=O)NCC(=O)N[C@@H](CO)C(=O)N[C@@H](CC(N)=O)C(=O)N[C@H](C(=O)N[C@@H](Cc1ccc(O)cc1)C(N)=O)[C@@H](C)O)C(C)C)[C@@H](C)O` [Peptide 53, K(γE-C18diacid)K[CNTATC]ATQRLANFLSHSS(Aib)NFGPILPPTPVGSNTY-amide] (H-K([γGlu-C18 diacid])KCNTATCATQRLANFLSHSS[Aib]NFGPILPPTPVGSNTY-NH2; disulfide 3-8; N-terminus assumed), for which the “Ratio (selectivity hAMYR vs hCTR, ratio of EC50 values at the two receptors)” value in assay [1] was 2. Further, the figures for the EC50 in assay [1] and in assay [2] were 98 pM and 235 pM, respectively.
On the same counts, the results for `CC[C@H](C)[C@H](NC(=O)[C@@H]1CCCN1C(=O)CNC(=O)[C@H](Cc1ccccc1)NC(=O)[C@H](CC(N)=O)NC(=O)C(C)(C)NC(=O)[C@H](CO)NC(=O)[C@H](CO)NC(=O)[C@H](Cc1c[nH]cn1)NC(=O)[C@H](CO)NC(=O)[C@H](CC(C)C)NC(=O)[C@H](Cc1ccccc1)NC(=O)[C@H](CC(N)=O)NC(=O)[C@H](C)NC(=O)[C@H](CC(C)C)NC(=O)[C@H](CCCNC(=N)N)NC(=O)[C@H](CCC(N)=O)NC(=O)[C@@H](NC(=O)[C@H](C)NC(=O)[C@@H]1CSSC[C@H](NC(=O)[C@H](CCCCN)NC(=O)[C@@H](N)CCCCNC(=O)CC[C@H](NC(=O)CCCCCCCCCCCCCCCCC(=O)O)C(=O)O)C(=O)N[C@@H](CC(N)=O)C(=O)N[C@@H]([C@@H](C)O)C(=O)N[C@@H](C)C(=O)N[C@@H]([C@@H](C)O)C(=O)N1)[C@@H](C)O)C(=O)N[C@@H](CC(C)C)C(=O)N1CCC[C@H]1C(=O)N1CCC[C@H]1C(=O)N[C@H](C(=O)N[C@@H](CC(N)=O)C(=O)N[C@H](C(=O)N1CCC[C@H]1C(=O)N[C@@H](CO)C(=O)N[C@@H](CC(N)=O)C(=O)N[C@H](C(=O)N[C@@H](Cc1ccc(O)cc1)C(N)=O)[C@@H](C)O)C(C)C)[C@@H](C)O` [Peptide 54, K(γE-C18diacid)K[CNTATC]ATQRLANFLSHSS(Aib)NFGPILPPTNVPSNTY-amide] (H-K([γGlu-C18 diacid])KCNTATCATQRLANFLSHSS[Aib]NFGPILPPTNVPSNTY-NH2; disulfide 3-8; N-terminus assumed) are 0.2, 7590 pM and 1510 pM.
On to `CC[C@H](C)[C@H](NC(=O)[C@@H]1CCCN1C(=O)CNC(=O)[C@H](Cc1ccccc1)NC(=O)[C@H](CC(N)=O)NC(=O)C(C)(C)NC(=O)[C@H](CO)NC(=O)[C@H](CO)NC(=O)[C@H](Cc1c[nH]cn1)NC(=O)[C@H](CO)NC(=O)[C@H](CC(C)C)NC(=O)[C@H](Cc1ccccc1)NC(=O)[C@H](CC(N)=O)NC(=O)[C@H](C)NC(=O)[C@H](CC(C)C)NC(=O)[C@H](CCCNC(=N)N)NC(=O)[C@H](CCC(N)=O)NC(=O)[C@@H](NC(=O)[C@H](C)NC(=O)[C@@H]1CSSC[C@H](NC(=O)[C@H](CCCCN)NC(=O)[C@@H](N)CCCCNC(=O)CC[C@H](NC(=O)CCCCCCCCCCCCCCCCC(=O)O)C(=O)O)C(=O)N[C@@H](CC(N)=O)C(=O)N[C@@H]([C@@H](C)O)C(=O)N[C@@H](C)C(=O)N[C@@H]([C@@H](C)O)C(=O)N1)[C@@H](C)O)C(=O)N[C@@H](CC(C)C)C(=O)N1CCC[C@H]1C(=O)N1CCC[C@H]1C(=O)N[C@H](C(=O)N[C@@H](CC(N)=O)C(=O)N[C@H](C(=O)NCC(=O)N[C@@H](CO)C(=O)N1CCC[C@H]1C(=O)N[C@H](C(=O)N[C@@H](Cc1ccc(O)cc1)C(N)=O)[C@@H](C)O)C(C)C)[C@@H](C)O` [Peptide 55, K(γE-C18diacid)K[CNTATC]ATQRLANFLSHSS(Aib)NFGPILPPTNVGSPTY-amide] (H-K([γGlu-C18 diacid])KCNTATCATQRLANFLSHSS[Aib]NFGPILPPTNVGSPTY-NH2; disulfide 3-8), for which, in assay [1], the “Ratio (selectivity hAMYR vs hCTR, ratio of EC50 values at the two receptors)” value is given as 3 and the 50% effective concentration (EC50) was 678 pM. The EC50 in assay [2] was 1870 pM.
For `CC[C@H](C)[C@H](NC(=O)[C@@H]1CCCN1C(=O)CNC(=O)[C@H](Cc1ccccc1)NC(=O)[C@H](CC(N)=O)NC(=O)C(C)(C)NC(=O)[C@H](CO)NC(=O)[C@H](CO)NC(=O)[C@H](Cc1c[nH]cn1)NC(=O)[C@@H](NC(=O)[C@H](CC(C)C)NC(=O)[C@H](Cc1ccccc1)NC(=O)[C@H](CC(N)=O)NC(=O)[C@H](C)NC(=O)[C@H](CC(C)C)NC(=O)[C@H](CCCNC(=N)N)NC(=O)[C@H](CCC(N)=O)NC(=O)[C@@H](NC(=O)[C@H](C)NC(=O)[C@@H]1CSSC[C@H](NC(=O)[C@@H](N)CCCCNC(=O)CC[C@H](NC(=O)CCCCCCCCCCCCCCCCC(=O)O)C(=O)O)C(=O)N[C@@H](CC(N)=O)C(=O)N[C@@H]([C@@H](C)O)C(=O)N[C@@H](C)C(=O)N[C@@H]([C@@H](C)O)C(=O)N1)[C@@H](C)O)C(C)C)C(=O)N[C@@H](CC(C)C)C(=O)N1CCC[C@H]1C(=O)N1CCC[C@H]1C(=O)N[C@H](C(=O)N[C@@H](CC(N)=O)C(=O)N[C@H](C(=O)NCC(=O)N[C@@H](CO)C(=O)N[C@@H](CC(N)=O)C(=O)N[C@H](C(=O)N[C@@H](Cc1ccc(O)cc1)C(N)=O)[C@@H](C)O)C(C)C)[C@@H](C)O` [Peptide 56, K(γE-C18diacid)[CNTATC]ATQRLANFLVHSS(Aib)NFGPILPPTNVGSNTY-amide] (H-K([γGlu-C18 diacid])CNTATCATQRLANFLVHSS[Aib]NFGPILPPTNVGSNTY-NH2; disulfide 2-7; N-terminus assumed), in assay [1], the “Ratio (selectivity hAMYR vs hCTR, ratio of EC50 values at the two receptors)” value was found to be 7 and the EC50 is 70 pM. In addition, in assay [2], the EC50 was 493 pM.
For the molecule `CC[C@H](C)[C@H](NC(=O)[C@@H]1CCCN1C(=O)CNC(=O)[C@H](Cc1ccccc1)NC(=O)[C@H](CC(N)=O)NC(=O)C(C)(C)NC(=O)[C@H](CO)NC(=O)[C@H](CO)NC(=O)[C@H](Cc1c[nH]cn1)NC(=O)[C@@H](NC(=O)[C@H](CC(C)C)NC(=O)[C@H](Cc1ccccc1)NC(=O)[C@H](CC(N)=O)NC(=O)[C@H](C)NC(=O)[C@H](CC(C)C)NC(=O)[C@H](CCCNC(=N)N)NC(=O)[C@H](CCC(N)=O)NC(=O)[C@@H](NC(=O)[C@H](C)NC(=O)[C@@H]1CSSC[C@H](NC(=O)[C@H](CCCCN)NC(=O)[C@@H](N)CCCCNC(=O)CC[C@H](NC(=O)CCCCCCCCCCCCCCCCC(=O)O)C(=O)O)C(=O)N[C@@H](CC(N)=O)C(=O)N[C@@H]([C@@H](C)O)C(=O)N[C@@H](C)C(=O)N[C@@H]([C@@H](C)O)C(=O)N1)[C@@H](C)O)C(C)C)C(=O)N[C@@H](CC(C)C)C(=O)N1CCC[C@H]1C(=O)N1CCC[C@H]1C(=O)N[C@H](C(=O)N[C@@H](CC(N)=O)C(=O)N[C@H](C(=O)NCC(=O)N[C@@H](CO)C(=O)N[C@@H](CC(N)=O)C(=O)N[C@H](C(=O)N1CCC[C@H]1C(N)=O)[C@@H](C)O)C(C)C)[C@@H](C)O` [Peptide 58, K(γE-C18diacid)K[CNTATC]ATQRLANFLVHSS(Aib)NFGPILPPTNVGSNTP-amide] (H-K([γGlu-C18 diacid])KCNTATCATQRLANFLVHSS[Aib]NFGPILPPTNVGSNTP-NH2; disulfide 3-8), in assay [1], the “Ratio (selectivity hAMYR vs hCTR, ratio of EC50 values at the two receptors)” value is recorded as 1 and the EC50 is 71 pM. In addition, in assay [2], the EC50 stood at 65 pM.

The EC50 is the midpoint of the concentration-response curve.

Values taken from patent US20240067693A1, “POLYPEPTIDES AND USES THEREOF” (MEDIMMUNE LIMITED, priority 2020, published 2024).
